# Assay results reported in the supplement of paper PMC4862054.
# Experiments:
# Settings in all cases: incubation time: 72 h
# [1] = test system: MDA-MB-453; assay: normalised viability (% of control), CellTiter-Blue; higher = more viable cells (100 = DMSO, 0 = benzethonium chloride kill control)
# Summary of the method: (§1)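 Breast cancer cell lines were treated for 72 h in 384-well format and measured by CellTiter-Blue fluorescence at 560/590 nm. Results were normalised per plate to vehicle (100) and a positive kill control (0). The entry is normalised viability at a single listed concentration of the series.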
# [2] = test system: MFM-223; assay: as above
# Summary of the method: as §1
# [3] = test system: BT-549; assay: as above
# Summary of the method: as §1
# [4] = test system: SK-BR-3; assay: as above
# Summary of the method: as §1
# [5] = test system: CAL-51; assay: as above
# Summary of the method: as §1
# [6] = test system: CAL-120; assay: as above
# Summary of the method: as §1
# [7] = test system: BT-474; assay: as above
# Summary of the method: as §1
# [8] = test system: MDA-MB-468; assay: as above
# Summary of the method: as §1
# [9] = test system: MDA-MB-231; assay: as above
# Summary of the method: as §1
# [10] = test system: HCC1143; assay: as above
# Summary of the method: as §1
# [11] = test system: HDQ-P1; assay: as above
# Summary of the method: as §1
# [12] = test system: DU-4475; assay: as above
# Summary of the method: as §1
# [13] = test system: CAL-148; assay: as above
# Summary of the method: as §1
# [14] = test system: CAL-85-1; assay: as above
# Summary of the method: as §1
# [15] = test system: HCC1599; assay: normalised viability (% of control), CellTiter-Blue; higher = more viable cells (about 100 = DMSO control)
# Method: (§2)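 DSRT, CellTiter-Blue viability, 72 h incubation. Signal is normalised to DMSO and benzethonium chloride controls. Value is the normalised response at dose 3.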
# [16] = test system: MDA-MB-453; assay: as above
# Method: as §2
# [17] = test system: MFM-223; assay: as above
# Method: as §2
# [18] = test system: BT-549; assay: as above
# Method: as §2
# [19] = test system: MDA-MB-436; assay: as above
# Method: as §2
# [20] = test system: Hs578T; assay: as above
# Method: as §2
# [21] = test system: SK-BR-3; assay: as above
# Method: as §2
# [22] = test system: CAL-51; assay: as above
# Method: as §2
# [23] = test system: CAL-120; assay: as above
# Method: as §2
# [24] = test system: BT-474; assay: as above
# Method: as §2
# [25] = test system: MDA-MB-468; assay: as above
# Method: as §2
# [26] = test system: MDA-MB-231; assay: as above
# Method: as §2
# [27] = test system: HCC1143; assay: as above
# Method: as §2
# [28] = test system: HDQ-P1; assay: as above
# Method: as §2
# [29] = test system: DU-4475; assay: as above
# Method: as §2
# [30] = test system: CAL-148; assay: as above
# Method: as §2
# [31] = test system: HCC1937; assay: as above
# Method: as §2
# [32] = test system: CAL-85-1; assay: as above
# Method: as §2
compound,measurement,setting,value
CCN(CC)CCCC(C)Nc1c2ccc(Cl)cc2nc2ccc(OC)cc12 (configuration not stated) [Mepacrine],normalised viability,[1]; 0.099 nM,98%
same,normalised viability,[1]; 1 nM,106%
same,normalised viability,[2]; 0.099 nM,103%
same,normalised viability,[2]; 1 nM,96%
same,normalised viability,[3]; 0.099 nM,96.1%
same,normalised viability,[3]; 1 nM,86.5%
same,normalised viability,[4]; 0.099 nM,100%
same,normalised viability,[4]; 1 nM,101%
same,normalised viability,[5]; 0.099 nM,90.8%
same,normalised viability,[5]; 1 nM,97.2%
same,normalised viability,[6]; 0.099 nM,114%
same,normalised viability,[6]; 1 nM,97.7%
same,normalised viability,[7]; 0.099 nM,74.2%
same,normalised viability,[7]; 1 nM,113%
same,normalised viability,[8]; 0.099 nM,108%
same,normalised viability,[8]; 1 nM,101%
same,normalised viability,[9]; 0.099 nM,95.4%
same,normalised viability,[9]; 1 nM,101%
same,normalised viability,[10]; 0.099 nM,108%
same,normalised viability,[10]; 1 nM,98.1%
same,normalised viability,[11]; 0.099 nM,115%
same,normalised viability,[11]; 1 nM,108%
same,normalised viability,[12]; 0.099 nM,93.5%
same,normalised viability,[12]; 1 nM,111%
same,normalised viability,[13]; 0.099 nM,115%
same,normalised viability,[13]; 1 nM,96.9%
same,normalised viability,[14]; 0.099 nM,101%
same,normalised viability,[14]; 1 nM,94.5%
same,normalised viability,[15]; 9.9 nM,88.2%
same,normalised viability,[15]; 100 nM,88.9%
same,normalised viability,[16]; 0.99 nM,98.4%
same,normalised viability,[16]; 10 nM,100%
same,normalised viability,[17]; 9.9 nM,97%
same,normalised viability,[17]; 100 nM,97.9%
same,normalised viability,[18]; 9.9 nM,86.1%
same,normalised viability,[18]; 100 nM,90.3%
same,normalised viability,[19]; 9.9 nM,108%
same,normalised viability,[19]; 100 nM,91.3%
same,normalised viability,[20]; 9.9 nM,114%
same,normalised viability,[20]; 100 nM,110%
same,normalised viability,[21]; 9.9 nM,99.8%
same,normalised viability,[21]; 100 nM,91.3%
same,normalised viability,[22]; 0.99 nM,95.9%
same,normalised viability,[22]; 10 nM,99.6%
same,normalised viability,[23]; 9.9 nM,117%
same,normalised viability,[23]; 100 nM,104%
same,normalised viability,[24]; 9.9 nM,113%
same,normalised viability,[24]; 100 nM,109%
same,normalised viability,[25]; 9.9 nM,110%
same,normalised viability,[25]; 100 nM,105%
same,normalised viability,[26]; 9.9 nM,95.2%
same,normalised viability,[26]; 100 nM,89.8%
same,normalised viability,[27]; 9.9 nM,130%
same,normalised viability,[27]; 100 nM,106%
same,normalised viability,[28]; 0.99 nM,117%
same,normalised viability,[28]; 10 nM,114%
same,normalised viability,[29]; 0.99 nM,83.1%
same,normalised viability,[29]; 10 nM,96.4%
same,normalised viability,[30]; 0.99 nM,116%
same,normalised viability,[30]; 10 nM,107%
same,normalised viability,[31]; 9.9 nM,99.4%
same,normalised viability,[31]; 100 nM,87.4%
same,normalised viability,[32]; 0.99 nM,99%
same,normalised viability,[32]; 10 nM,92.6%
C[C@H]1C[C@@H]2[C@H]([C@@H](O)C[C@@]3(C)[C@H]2CC[C@]3(O)C(=O)CO)[C@@]2(C)C=CC(=O)C=C12 [Methylprednisolone],normalised viability,[1]; 1 nM,95.4%
same,normalised viability,[2]; 1 nM,92.7%
same,normalised viability,[3]; 1 nM,93%
same,normalised viability,[4]; 1 nM,92.2%
same,normalised viability,[5]; 1 nM,103%
same,normalised viability,[6]; 1 nM,81.9%
same,normalised viability,[7]; 1 nM,108%
same,normalised viability,[8]; 1 nM,101%
same,normalised viability,[9]; 1 nM,103%
same,normalised viability,[10]; 1 nM,93.3%
same,normalised viability,[11]; 1 nM,97.7%
same,normalised viability,[12]; 1 nM,95.4%
same,normalised viability,[13]; 1 nM,105%
same,normalised viability,[14]; 1 nM,84.6%
same,normalised viability,[15]; 100 nM,108%
same,normalised viability,[16]; 10 nM,100%
same,normalised viability,[17]; 100 nM,81.1%
same,normalised viability,[18]; 100 nM,111%
same,normalised viability,[19]; 100 nM,94.6%
same,normalised viability,[20]; 100 nM,85.3%
same,normalised viability,[21]; 100 nM,82.5%
same,normalised viability,[22]; 10 nM,101%
same,normalised viability,[23]; 100 nM,79.8%
same,normalised viability,[24]; 100 nM,119%
same,normalised viability,[25]; 100 nM,96.6%
same,normalised viability,[26]; 100 nM,120%
same,normalised viability,[27]; 100 nM,86.6%
same,normalised viability,[28]; 10 nM,116%
same,normalised viability,[29]; 10 nM,101%
same,normalised viability,[30]; 10 nM,91.3%
same,normalised viability,[31]; 100 nM,97.7%
same,normalised viability,[32]; 10 nM,114%
O=C(O)C(=O)O.[NH-][C@@H]1CCCC[C@H]1[NH-].[Pt+2] [Oxaliplatin],normalised viability,[1]; 1 nM,100%
same,normalised viability,[2]; 1 nM,97.1%
same,normalised viability,[3]; 1 nM,89%
same,normalised viability,[4]; 1 nM,91%
same,normalised viability,[5]; 1 nM,93.3%
same,normalised viability,[6]; 1 nM,84.8%
same,normalised viability,[7]; 1 nM,103%
same,normalised viability,[8]; 1 nM,109%
same,normalised viability,[9]; 1 nM,101%
same,normalised viability,[10]; 1 nM,93%
same,normalised viability,[11]; 1 nM,130%
same,normalised viability,[12]; 1 nM,99.8%
same,normalised viability,[13]; 1 nM,109%
same,normalised viability,[14]; 1 nM,86.7%
same,normalised viability,[15]; 100 nM,96.1%
same,normalised viability,[16]; 10 nM,114%
same,normalised viability,[17]; 100 nM,91.8%
same,normalised viability,[18]; 100 nM,89.1%
same,normalised viability,[19]; 100 nM,96.1%
same,normalised viability,[20]; 100 nM,95.7%
same,normalised viability,[21]; 100 nM,94%
same,normalised viability,[22]; 10 nM,103%
same,normalised viability,[23]; 100 nM,91%
same,normalised viability,[24]; 100 nM,127%
same,normalised viability,[25]; 100 nM,107%
same,normalised viability,[26]; 100 nM,89%
same,normalised viability,[27]; 100 nM,98.2%
same,normalised viability,[28]; 10 nM,119%
same,normalised viability,[29]; 10 nM,95.9%
same,normalised viability,[30]; 10 nM,127%
same,normalised viability,[31]; 100 nM,89.1%
same,normalised viability,[32]; 10 nM,92%
Nc1nc2[nH]cc(CCc3ccc(C(=O)N[C@@H](CCC(=O)O)C(=O)O)cc3)c2c(=O)[nH]1 [Pemetrexed],normalised viability,[1]; 1 nM,101%
same,normalised viability,[2]; 1 nM,93.1%
same,normalised viability,[3]; 1 nM,101%
same,normalised viability,[4]; 1 nM,98.9%
same,normalised viability,[5]; 1 nM,109%
same,normalised viability,[6]; 1 nM,87%
same,normalised viability,[7]; 1 nM,106%
same,normalised viability,[8]; 1 nM,96.9%
same,normalised viability,[9]; 1 nM,100%
same,normalised viability,[10]; 1 nM,92.5%
same,normalised viability,[11]; 1 nM,107%
same,normalised viability,[12]; 1 nM,99.3%
same,normalised viability,[13]; 1 nM,113%
same,normalised viability,[14]; 1 nM,89.2%
same,normalised viability,[15]; 100 nM,88.9%
same,normalised viability,[16]; 10 nM,118%
same,normalised viability,[17]; 100 nM,91.6%
same,normalised viability,[18]; 100 nM,87.8%
same,normalised viability,[19]; 100 nM,97.2%
same,normalised viability,[20]; 100 nM,102%
same,normalised viability,[21]; 100 nM,84%
same,normalised viability,[22]; 10 nM,108%
same,normalised viability,[23]; 100 nM,86%
same,normalised viability,[24]; 100 nM,125%
same,normalised viability,[25]; 100 nM,99%
same,normalised viability,[26]; 100 nM,94.9%
same,normalised viability,[27]; 100 nM,91.6%
same,normalised viability,[28]; 10 nM,120%
same,normalised viability,[29]; 10 nM,104%
same,normalised viability,[30]; 10 nM,101%
same,normalised viability,[31]; 100 nM,92.8%
same,normalised viability,[32]; 10 nM,99.8%
COc1cc([C@@H]2c3cc4c(cc3[C@@H](O[C@@H]3O[C@@H]5CO[C@@H](c6cccs6)O[C@H]5[C@H](O)[C@H]3O)[C@H]3COC(=O)[C@H]23)OCO4)cc(OC)c1O [Teniposide],normalised viability,[1]; 1 nM,113%
same,normalised viability,[2]; 1 nM,92.1%
same,normalised viability,[3]; 1 nM,85%
same,normalised viability,[4]; 1 nM,97.2%
same,normalised viability,[5]; 1 nM,105%
same,normalised viability,[6]; 1 nM,98.2%
same,normalised viability,[7]; 1 nM,87.9%
same,normalised viability,[8]; 1 nM,98.9%
same,normalised viability,[9]; 1 nM,132%
same,normalised viability,[10]; 1 nM,98.1%
same,normalised viability,[11]; 1 nM,104%
same,normalised viability,[12]; 1 nM,94.6%
same,normalised viability,[13]; 1 nM,103%
same,normalised viability,[14]; 1 nM,105%
same,normalised viability,[15]; 100 nM,87.8%
same,normalised viability,[16]; 10 nM,111%
same,normalised viability,[17]; 100 nM,101%
same,normalised viability,[18]; 100 nM,70.9%
same,normalised viability,[19]; 100 nM,81.8%
same,normalised viability,[20]; 100 nM,71.5%
same,normalised viability,[21]; 100 nM,52.3%
same,normalised viability,[22]; 10 nM,95%
same,normalised viability,[23]; 100 nM,75.2%
same,normalised viability,[24]; 100 nM,105%
same,normalised viability,[25]; 100 nM,79.8%
same,normalised viability,[26]; 100 nM,81.8%
same,normalised viability,[27]; 100 nM,79.4%
same,normalised viability,[28]; 10 nM,106%
same,normalised viability,[29]; 10 nM,67.2%
same,normalised viability,[30]; 10 nM,95.5%
same,normalised viability,[31]; 100 nM,61.4%
same,normalised viability,[32]; 10 nM,101%
